{"source": "BindingDB's records for doi:10.1021/jm00100a013", "about": "(Medical University of South Carolina, 1992)", "target": "Folylpolyglutamate synthase (Sus scrofa)", "assay": "Inhibitory activity against hog liver Folyl polyglutamate synthetase (FPGS)"}
{"smiles": "NCCCC(NC(=O)c1ccc(CNc2ccc3nc(N)[nH]c(=O)c3c2F)cc1)C(=O)O", "note": "(centres undefined)", "values": [{"measurement": "Ki", "value": 900, "unit": "nM"}]}
{"smiles": "NCCCC(NC(=O)c1ccc(CNc2ccc3nc(N)[nH]c(=O)c3c2Cl)cc1)C(=O)O", "note": "(centres undefined)", "values": [{"measurement": "Ki", "value": 500, "unit": "nM"}]}
{"smiles": "NCCCC(NC(=O)c1ccc(NCc2ccc3nc(N)[nH]c(=O)c3c2C(F)(F)F)cc1)C(=O)O", "note": "(centres undefined)", "values": [{"measurement": "Ki", "value": 8.8, "unit": "nM"}]}
{"smiles": "NCCCC(NC(=O)c1ccc(CNc2ccc3nc(N)[nH]c(=O)c3c2C(F)(F)F)cc1)C(=O)O", "note": "(centres undefined)", "values": [{"measurement": "Ki", "value": 11, "unit": "nM"}]}
